Results on 13 compounds are retold here after US20260209249A1, “NOVEL TRICYCLIC COMPOUND AS KRAS G12D INHIBITOR, AND USE THEREOF” (SK Biopharmaceuticals Co., priority 2022, published 2026).

As usually defined, the IC50 is the concentration needed to halve the response being measured.

SMILES strings stand for the structures.

For assay [1], the system named is KRAS G12D mutant pancreatic cancer cell line AsPC-1. The assay is described as follows: Cell viability assay using KRAS G12D mutant cells (AsPC-1, 3D culture, celltiter-glo 3D). It counts as cell-based. Conditions: Homo sapiens, ASPC1, 5th day after compound treatment. In outline: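 AsPC-1 cells in 3D culture, 1000 cells/well, treated next day with 1/5 serial dilutions from 10 μM or 50 μM, 1:1 v/v. Viability read by CellTiter-Glo 3D on day 5, normalized to DMSO (100%) and untreated backgrounds; IC50 from four-parameter sigmoidal fit.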
On the technique in general: In ATP-based viability assays light output follows the ATP content of the culture.

The subject of assay [2] is ERK phosphorylation (pERK) induced by KRAS G12D mutation. The assay can be described thus: Inhibitory activity against ERK phosphorylation (pERK) induced by KRAS G12D mutation, immunofluorescence assay in AsPC-1 cells. It is filed as cell-based. To be noted: Homo sapiens, ASPC1, 3 h drug treatment, pERK (Thr202/Tyr204) signal normalized to DAPI. In short, it runs like this: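 AsPC-1 cells attached 16 h, then treated 3 h with 3-fold dilutions from 10 μM top. Fixed, permeabilized, immunostained for pERK (Thr202/Tyr204) with Alexa 488 secondary; high-content imaging, signal normalized to DAPI and to DMSO, IC50 from four-parameter fit.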

In assay [3] the target is T1, GppNHp-KRAS G12D mutant protein (Homo sapiens, UniProt P01116, G12D).
T1 construct: purchased Daegu Gyeongbuk Medical Innovation Foundation (DGMIF), made to order
The assay is described as follows: Differential scanning fluorimetry (DSF) binding affinity to GppNHp-KRAS G12D mutant protein. To be noted: DSF thermal shift, 10 μM compound, 4 μg KRAS protein, 50 mM HEPES (pH 7.5). In outline: (§1)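 Each sample held 4 μg recombinant KRAS G12D (GDP- or GppNHp-bound) and 10 μM compound, incubated 30 min at room temperature before adding 2× SYPRO Orange. The GDP form was run in kit buffer, the GppNHp form in 50 mM HEPES pH 7.5. Melt was 25–99 °C at 0.05 °C/s (580/623 nm), reported as ΔTm versus no compound.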
On the technique in general: DSF heats the sample and reads unfolding from a dye or from intrinsic fluorescence.

Assay [4] deals with T2, GDP-KRAS G12D mutant protein (Homo sapiens, UniProt P01116, G12D).
T2 construct: purchased Daegu Gyeongbuk Medical Innovation Foundation (DGMIF), made to order
The assay is described as follows: Differential scanning fluorimetry (DSF) binding affinity to GDP-KRAS G12D mutant protein. To be noted: DSF thermal shift, 10 μM compound, 4 μg KRAS protein. In outline: as §1

For the compound `C#Cc1c(F)ccc2cc(O)cc(-c3cc4nc(OC[C@@]56CCCN5C[C@H](F)C6)nc(N5C[C@H]6CC[C@@H](C5)N6)c4c4cc(C)oc34)c12` [Example 42, 4-(1-((1R,5S)-3,8-diazabicyclo[3.2.1]octan-3-yl)-3-(((2R,7aS)-2-fluorotetrahydro-1H-pyrrolizin-7a(5H)-yl)methoxy)-8-methylfuro[3,2-f]quinazolin-6-yl)-5-ethynyl-6-fluoronaphthalen-2-ol], the IC50 in assay [1] is 0.105 µM; in assay [2], 0.064 µM. The “GppNHp-KRAS G12D (ΔTmD, ° C.)” value in assay [3] was 5.75 °C. In addition, the “GDP-KRAS G12D (ΔTmD, ° C.)” value in assay [4] was 10.96 °C.
The corresponding values for `C#Cc1c(F)ccc2cc(O)cc(-c3c(F)c4nc(OC[C@@]56CCCN5C[C@H](F)C6)nc(N5CC6CCC(C5)N6)c4c4cc(C)oc34)c12` [Example 44, 4-(1-((1R,5S)-3,8-diazabicyclo[3.2.1]octan-3-yl)-5-fluoro-3-(((2R,7aS)-2-fluorotetrahydro-1H-pyrrolizin-7a(5H)-yl)methoxy)-8-methylfuro[3,2-n]quinazolin-6-yl)-5-ethynyl-6-fluoronaphthalen-2-ol] are 0.007 µM, 0.012 µM, 9.89 °C and 14.33 °C.
On to `C#Cc1c(F)ccc2cc(N)cc(-c3c(F)c4nc(OC[C@@]56CCCN5C[C@H](F)C6)nc(N5C[C@H]6CC[C@@H](C5)N6)c4c4cc(C)oc34)c12` [Example 57, 4-(1-((1R,5S)-3,8-diazabicyclo[3.2.1]octan-3-yl)-5-fluoro-3-(((2R,7aS)-2-fluorotetrahydro-1H-pyrrolizin-7a(5H)-yl)methoxy)-8-methylfuro[3,2-f]quinazolin-6-yl)-5-ethynyl-6-fluoronaphthalen-2-amine], for which the IC50 in assay [1] worked out at 0.101 µM; in assay [2], 0.167 µM. Further, in assay [3], the “GppNHp-KRAS G12D (ΔTmD, ° C.)” value is 5.76 °C. In assay [4], the “GDP-KRAS G12D (ΔTmD, ° C.)” value came to 8.57 °C.
The corresponding values for `C#Cc1c(F)ccc2cc(O)cc(-c3c(F)c4nc(OCC5(CN6CCC7(CC6)CC7(F)F)CC5)nc(N5C[C@H]6CC[C@@H](C5)N6)c4c4cc(C)oc34)c12` [Example 59, 4-(1-((1R,5S)-3,8-diazabicyclo[3.2.1]octan-3-yl)-3-((1-((1,1-difluoro-6-azaspiro[2.5]octan-6-yl)methyl)cyclopropyl)methoxy)-5-fluoro-8-methylfuro[3,2-n]quinazolin-6-yl)-5-ethynyl-6-fluoronaphthalen-2-ol] are 0.069 µM, 0.054 µM, 6.06 °C and 12.88 °C.
The corresponding values for `C#Cc1c(F)ccc2cc(O)cc(-c3c(F)c4nc(OC[C@]56CC(=C)CN5C[C@@H](F)C6)nc(N5C[C@H]6CC[C@@H](C5)N6)c4c4cc(C)oc34)c12` [Example 65, 4-(1-((1R,5S)-3,8-diazabicyclo[3.2.1]octan-3-yl)-5-fluoro-3-(((2S,7aR)-2-fluoro-6-methylenetetrahydro-1H-pyrrolizin-7a(5H)-yl)methoxy)-8-methylfuro[3,2-f]quinazolin-6-yl)-5-ethynyl-6-fluoronaphthalen-2-ol] are 0.005 µM, 0.004 µM, 8.60 °C and 14.23 °C.
Turning to `C#Cc1c(F)ccc2cc(O)cc(-c3cc4nc(OC[C@@]56CCCN5C[C@H](F)C6)nc(N5C[C@H]6CC[C@@H](C5)N6)c4c4cn(C)nc34)c12` [Example 69, 4-(9-((1R,5S)-3,8-diazabicyclo[3.2.1]octan-3-yl)-7-(((2R,7aS)-2-fluorotetrahydro-1H-pyrrolizin-7a(5H)-yl)methoxy)-2-methyl-2H-pyrazolo[4,3-f]quinazolin-4-yl)-5-ethynyl-6-fluoronaphthalen-2-ol], the IC50 in assay [1] came to 0.19 µM; in assay [2] it was 0.169 µM. The “GppNHp-KRAS G12D (ΔTmD, ° C.)” value in assay [3] was determined as 7.24 °C. Further, the “GDP-KRAS G12D (ΔTmD, ° C.)” value in assay [4] is 11.68 °C.
On to `C#Cc1c(F)ccc2cc(O)cc(-c3cc4nc(OCC5(CN6CCC7(CC6)CC7(F)F)CC5)nc(N5C[C@H]6CC[C@@H](C5)N6)c4c4cn(C)nc34)c12` [Example 73, 4-(9-((1R,5S)-3,8-diazabicyclo[3.2.1]octan-3-yl)-7-((1-((1,1-difluoro-6-azaspiro[2.5]octan-6-yl)methyl)cyclopropyl)methoxy)-2-methyl-2H-pyrazolo[4,3-f]quinazolin-4-yl)-5-ethynyl-6-fluoronaphthalen-2-ol], for which the IC50 in assay [1] was 0.037 µM; in assay [2], 0.049 µM. Moreover, in assay [3], the “GppNHp-KRAS G12D (ΔTmD, ° C.)” value is 5.60 °C. Also, the “GDP-KRAS G12D (ΔTmD, ° C.)” value in assay [4] was determined as 11.97 °C.
The corresponding values for `C#Cc1c(F)ccc2cc(N)cc(-c3cc4nc(OC[C@@]56CCCN5C/C(=C\F)C6)nc(N5C[C@H]6CC[C@@H](C5)N6)c4c4cn(C)nc34)c12` [Example 74, 4-(9-((1R,5S)-3,8-diazabicyclo[3.2.1]octan-3-yl)-7-(((S,Z)-2-(fluoromethylene)tetrahydro-1H-pyrrolizin-7a(5H)-yl)methoxy)-2-methyl-2H-pyrazolo[4,3-f]quinazolin-4-yl)-5-ethynyl-6-fluoronaphthalen-2-amine] are 0.11 µM, 0.143 µM, 5.30 °C and 7.82 °C.
As to `C#Cc1c(F)ccc2cc(O)cc(-c3cc4nc(OC[C@@]56CCCN5C/C(=C\F)C6)nc(N5C[C@H]6CC[C@@H](C5)N6)c4c4cn(C)nc34)c12` [Example 75, 4-(9-((1 R,5S)-3,8-diazabicyclo[3.2.1]octan-3-yl)-7-(((S,Z)-2-(fluoromethylene)tetrahydro-1H-pyrrolizin-7a(5H)-yl)methoxy)-2-methyl-2H-pyrazolo[4,3-f]quinazolin-4-yl)-5-ethynyl-6-fluoronaphthalen-2-ol], the IC50 was 0.034 µM in assay [1] and 0.02 µM in assay [2]. In assay [3], the “GppNHp-KRAS G12D (ΔTmD, ° C.)” value is 9.60 °C. In addition, the “GDP-KRAS G12D (ΔTmD, ° C.)” value in assay [4] turned out to be 13.74 °C.
As for `C#Cc1c(F)ccc2cc(O)cc(-c3c(F)c4nc(OC[C@@]56CCCN5C[C@H](F)C6)nc(N5C[C@H]6CC[C@@H](C5)N6)c4c4cn(C)nc34)c12` [Example 80, 4-(9-((1R,5S)-3,8-diazabicyclo[3.2.1]octan-3-yl)-5-fluoro-7-(((2R,7aS)-2-fluorotetrahydro-1H-pyrrolizin-7a(5H)-yl)methoxy)-2-methyl-2H-pyrazolo[4,3-n]quinazolin-4-yl)-5-ethynyl-6-fluoronaphthalen-2-ol], the IC50 in assay [1] stood at 0.046 µM; in assay [2] it was 0.035 µM. In assay [3], the “GppNHp-KRAS G12D (ΔTmD, ° C.)” value came out at 11.13 °C. In addition, in assay [4], the “GDP-KRAS G12D (ΔTmD, ° C.)” value was determined as 14.81 °C.
The corresponding values for `C#Cc1c(F)ccc2cc(N)cc(-c3c(F)c4nc(OC[C@@]56CCCN5C[C@H](F)C6)nc(N5C[C@H]6CC[C@@H](C5)N6)c4c4cn(C)nc34)c12` [Example 81, 4-(9-((1R,5S)-3,8-diazabicyclo[3.2.1]octan-3-yl)-5-fluoro-7-(((2R,7aS)-2-fluorotetrahydro-1H-pyrrolizin-7a(5H)-yl)methoxy)-2-methyl-2H-pyrazolo[4,3-n]quinazolin-4-yl)-5-ethynyl-6-fluoronaphthalen-2-amine] are 0.28 µM, 0.081 µM, 6.66 °C and 10.04 °C.
Take `CCc1c(F)ccc2cc(O)cc(-c3c(F)c4nc(OC[C@@]56CCCN5C/C(=C\F)C6)nc(N5C[C@H]6CC[C@@H](C5)N6)c4c4cn(C)nc34)c12` [Example 85, 4-(9-((1R,5S)-3,8-diazabicyclo[3.2.1]octan-3-yl)-5-fluoro-7-(((S,Z)-2-(fluoromethylene)tetrahydro-1H-pyrrolizin-7a(5H)-yl)methoxy)-2-methyl-2H-pyrazolo[4,3-f]quinazolin-4-yl)-5-ethyl-6-fluoronaphthalen-2-ol]: the results for the half-inhibitory concentration (IC50) in assay [1] and in assay [2] were 0.011 µM and 0.007 µM, respectively. For the same compound, in assay [3], the “GppNHp-KRAS G12D (ΔTmD, ° C.)” value was 12.43 °C. For the same compound, the “GDP-KRAS G12D (ΔTmD, ° C.)” value in assay [4] amounted to 15.24 °C.
On to `Cn1cc2c(n1)c(-c1cc(O)cc3ccc(F)c(F)c13)c(F)c1nc(OC[C@@]34CCCN3C/C(=C\F)C4)nc(N3C[C@H]4CC[C@@H](C3)N4)c12` [Example 86, 4-(9-((1R,5S)-3,8-diazabicyclo[3.2.1]octan-3-yl)-5-fluoro-7-(((S,Z)-2-(fluoromethylene)tetrahydro-1H-pyrrolizin-7a(5H)-yl)methoxy)-2-methyl-2H-pyrazolo[4,3-f]quinazolin-4-yl)-5,6-difluoronaphthalen-2-ol], for which the results for the IC50 in assay [1] and in assay [2] were 0.048 µM and 0.029 µM, respectively. Besides, the “GppNHp-KRAS G12D (ΔTmD, ° C.)” value in assay [3] was determined as 10.69 °C. In addition, in assay [4], the “GDP-KRAS G12D (ΔTmD, ° C.)” value worked out at 13.07 °C.
